Results taken from ChEMBL document CHEMBL5357078, “Synthesis and Structural Optimization of ATG4B Inhibitors for the Attenuation of Autophagy in Glioblastoma” (ACS Med Chem Lett, 2024).
Activity calls are given as the source filed them.

How the values were obtained:
Type in all cases: functional, cell-based
[1] = test system: GSC576; assay: Induction of autophagy in human GSC576 cells assessed as degradation of p62/SQSTM1 substrate incubated for 72 hrs by immunoblotting analysis
[2] = test system: GSC83; assay: Induction of autophagy in human GSC83 cells assessed as inhibition of ATG4B-induced LC3-1 to LC3-2 conversion incubated for 72 hrs by immunoblotting analysis
[3] = test system: GSC83; assay: Induction of autophagy in human GSC83 cells assessed as inhibition of sphere formation upto 10 uM incubated for 7 days; settings: time 7.0 day
[4] = test system: GSC83; assay: Antiproliferative activity against human GSC83 cells assessed as reduction in cell viability upto 100 uM incubated for 72 hrs by celltiter glo luminescent assay
[5] = test system: GSC576; assay: Antiproliferative activity against human GSC576 cells assessed as reduction in cell viability upto 100 uM incubated for 72 hrs by celltiter glo luminescent assay
[6] = test system: GSC83; assay: Induction of autophagy in human GSC83 cells assessed as degradation of p62/SQSTM1 substrate incubated for 72 hrs by immunoblotting analysis
[7] = test system: GSC576; assay: Induction of autophagy in human GSC576 cells assessed as inhibition of ATG4B-induced LC3-1 to LC3-2 conversion incubated for 72 hrs by immunoblotting analysis
[8] = test system: GSC576; assay: Induction of autophagy in human GSC576 cells assessed as inhibition of sphere formation upto 10 uM incubated for 7 days; settings: time 7.0 day
[9] = test system: GSC576; assay: Induction of autophagy in human GSC576 cells assessed as inhibition of sphere formation upto 100 uM incubated for 7 days; settings: time 7.0 day
[10] = test system: GSC83; assay: Induction of autophagy in human GSC83 cells assessed as inhibition of sphere formation upto 100 uM incubated for 7 days; settings: time 7.0 day

Measured: Activity

S=C(Nc1ccccn1)c1ccc2ccccc2n1
active: [1] | [2] | [3] | [4] | [5] | [6] | [7] | [8]

S=C(Nc1ccccn1)c1ccccn1
active: [1] | [2] | [6] | [7] | [9] | [10]
